Experimental data taken from BindingDB's records for doi:10.1007/s00044-010-9377-3 (n/a, 2011).

assay: Inhibition of rat intestinal alpha-glucosidase using p-nitrophenyl- alpha-D-glucopyranoside as substrate preincubated for 5 min before addition of substrate measured after 10 min

Row | IC50 [µM] | SMILES
1 | 74.1 | COc1ccc(/N=C/c2cc(Br)ccc2O)cc1
2 | 22.7 | O=[N+]([O-])c1ccc(/N=C/c2ccccc2O)cc1
3 | 8.8 | O=Cc1cc(Br)ccc1O [US8614253,3-44]
